TGI and GI50 data for 24 compounds are collected here from PubChem BioAssay (NCI).

Structures are written as SMILES.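 Results reflect a 48-hour exposure of cells in 96-well plates to compound at five concentrations. Abbreviation: GI50, concentration required for 50% inhibition of growth. TGI denotes the concentration required for complete inhibition of growth.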

Assay in all cases: inhibition of tumour cell growth, NCI panel, 48 h
Experiment [1] deals with MDA-MB-231 breast.
Experiment [2] concerns MCF7 breast.
In experiment [3] the test system is SK-OV-3 ovarian.
Experiment [4] concerns MDA-MB-435.
For experiment [5], the system named is SNB-75 CNS.
Experiment [6] concerns LOX IMVI melanoma.
The test system of experiment [7] is OVCAR-8 ovarian.
Experiment [8] has as its system K-562 leukemia.
The subject of experiment [9] is A549 NSCLC.
Experiment [10] concerns HOP-92 NSCLC.
Experiment [11] relates to MALME-3M melanoma.

Regarding `COC(=O)C1=NN2c3ccccc3C(=O)OCCC2C1` (stereo not given), the TGI in experiment [1], in experiment [2], in [3], in experiment [4], in [5] and in experiment [6] was > 100 µM in each case. Further, the TGI in [7], in [8], in experiment [9], in experiment [10] and in experiment [11] was > 100 µM each time.

As to `CCC(=O)OCc1ccc2oc(=O)c(C(=O)Oc3cncc(Cl)c3)cc2c1`, the TGI in [1], in experiment [2], in experiment [3], in [4], in [5] and in [6] was > 100 µM each time. In addition, the TGI in experiment [7] is > 100 µM; in experiment [8], 77.9 µM; in experiment [9] it was > 100 µM; in experiment [10] it was > 100 µM; in experiment [11] it was > 100 µM.

Take `Cc1cc(C)c2c(n1)S(=O)(=O)N(CCCN1CCN(c3cccc(C(F)(F)F)c3)CC1)/C(=C(\O)c1ccccc1)C2=O`: the TGI in [1] came to 71.8 µM; in experiment [2], 56.7 µM; in [3], 84.7 µM; in experiment [4] it was 82.8 µM; in [5], 19.2 µM; in experiment [6], 11.3 µM. The TGI was > 100 µM in [7]; > 100 µM in [8]; > 100 µM in experiment [9]; 36.8 µM in experiment [10]; > 100 µM in experiment [11].

Regarding `COC(=O)c1ccc2n1C1CC3CC(CC2C3)C1`, the TGI in experiment [1], in experiment [2], in experiment [3], in experiment [4], in experiment [5] and in experiment [6] was > 100 µM in each case. Further, the TGI in [7], in experiment [8], in experiment [9], in experiment [10] and in experiment [11] was > 100 µM throughout.

Take `O=C(O)c1c(-c2c3ccc(=O)cc-3oc3cc(O)ccc23)cc2ccccc2c1-c1ccccc1`: the TGI in experiment [1], in [2], in experiment [3], in experiment [4], in [5] and in [6] was > 100 µM throughout. The TGI is > 100 µM in experiment [7]; > 46.4 µM in [8]; > 100 µM in experiment [9]; > 100 µM in experiment [10]; > 100 µM in [11].

Regarding `COC1(OC)N=C(N)C2(C#N)C(C)CC(=O)N(N(C)C)C12C#N` (stereo not given), the TGI in experiment [1], in [2], in experiment [3], in experiment [4], in [5] and in experiment [6] was > 100 µM each time. Moreover, the TGI in [7], in [8], in [9], in [10] and in experiment [11] was > 100 µM in each case.

`Cc1ccc(/C=C2\NC(=S)N(CN3CCOCC3)C2=O)cc1`: the TGI in experiment [1], in experiment [2], in experiment [3], in experiment [4], in experiment [5] and in experiment [6] was > 100 µM throughout. Also, the TGI in experiment [7], in experiment [8], in experiment [9], in [10] and in [11] was > 100 µM throughout.

Turning to `Cc1cc2c(cc1O)CC[C@@H]1[C@@H]2CC[C@]2(C)[C@@H](O)CC[C@@H]12`, the TGI in experiment [1] worked out at 21.8 µM; in experiment [2], 26.1 µM; in experiment [3], 34.1 µM; in [4], 3.65 µM; in [5] it was 23.9 µM; in [6], 27 µM. The TGI was 51.7 µM in experiment [7]; 13.2 µM in experiment [8]; > 100 µM in [9]; 30.4 µM in experiment [10]; 19.4 µM in experiment [11]. In addition, the GI50 in [4] is 1800 nM.

`c1ccc2c(c1)CCc1c-2n(CCN2CCCCC2)c2ccccc12`: the TGI was 28 µM in [1]; 30.9 µM in experiment [2]; 49.7 µM in experiment [3]; 74.4 µM in experiment [4]; 49.1 µM in experiment [5]; 29.6 µM in experiment [6]. The TGI in experiment [7] worked out at 32 µM; in [8] it was 30.9 µM; in [9] it was 43.7 µM; in experiment [10] it was 35 µM; in experiment [11], 40.3 µM.

For `O=C(CCCCCCCCC(=O)NN1C(=O)/C(=C\c2ccc(O)c(O)c2)SC1c1c(O)ccc2ccccc12)NN1C(=O)C(=Cc2ccc(O)c(O)c2)SC1c1c(O)ccc2ccccc12` (stereo not given), the TGI in experiment [1] was > 87.7 µM; in [2], > 100 µM; in experiment [3], > 86.8 µM; in experiment [4], > 100 µM; in experiment [5] it was > 100 µM; in experiment [6], 13 µM. The TGI was > 100 µM in [7]; > 60.8 µM in experiment [8]; > 37.1 µM in experiment [9]; > 62.7 µM in experiment [10]; 74 µM in experiment [11].

Consider `FC(F)(F)c1ccc2c(c1)nc(Cc1ccccc1)n2C[C@@H]1CCCN2CCCCC12` (stereo not given in full), for which the TGI in experiment [1] came to 27.8 µM; in experiment [2], 28.6 µM; in experiment [3] it was 31.3 µM; in experiment [4], 30.4 µM; in experiment [5], 29.9 µM; in [6], 30.3 µM. For the same compound, the TGI in experiment [7] is 29.7 µM; in experiment [8], > 64.8 µM; in experiment [9], 28.8 µM; in [10], 27.2 µM; in [11], 31.1 µM.

As to `OC1C(O)C(O)C(O)C(O)C1O` (stereo not given), the TGI in experiment [1], in experiment [2], in [3], in experiment [4], in experiment [5] and in [6] was > 1000 µM throughout. Moreover, the TGI in [7], in experiment [8], in experiment [9], in experiment [10] and in [11] was > 1000 µM throughout.

Regarding `CC(C)(C)c1cc(-c2ccc(-c3cc(C(C)(C)C)c(O)c(C(C)(C)C)c3)cc2)cc(C(C)(C)C)c1O`, the TGI in experiment [1], in [2], in experiment [3], in experiment [4], in experiment [5] and in experiment [6] was > 100 µM in each case. Also, the TGI in [7], in [8], in [9], in experiment [10] and in experiment [11] was > 100 µM throughout.

As for `N#Cc1c(=O)c2cc([N+](=O)[O-])ccc2n2c1[nH]c1ccccc12`, the TGI in experiment [1] was > 57.4 µM; in [2], > 86.5 µM; in [3], > 100 µM; in [4] it was > 79.9 µM; in [5], > 100 µM; in experiment [6] it was > 50.4 µM. In addition, the TGI in [7] is > 79.5 µM; in experiment [8], > 23.4 µM; in experiment [9], > 100 µM; in experiment [10] it was > 39 µM; in [11], 35.4 µM.

For `Cn1c(-c2csc(-c3ccc(Cl)cc3)n2)n[nH]c1=S`, the TGI in [1] was 69.4 µM; in [2], > 100 µM; in experiment [3], 32 µM; in [4] it was > 100 µM; in experiment [5], 39.8 µM; in experiment [6] it was 73 µM. The TGI in experiment [7] is 47.2 µM; in experiment [8], > 100 µM; in experiment [9], > 100 µM; in experiment [10], 27.1 µM; in experiment [11], 69.6 µM.

On to `C=CCN1C(=O)/C(=C/c2ccc(C)cc2)N=C1SC/C=C/C`, for which the TGI in experiment [1] is > 100 µM; in experiment [2] it was > 100 µM; in experiment [3], > 100 µM; in experiment [4] it was > 100 µM; in experiment [5], 70.1 µM; in experiment [6], 44.5 µM. For the same compound, the TGI is > 100 µM in [7]; 89.4 µM in experiment [8]; > 100 µM in experiment [9]; 90.9 µM in experiment [10]; 93.4 µM in experiment [11].

With `Clc1ccc(OCc2nnc3sc(-c4ccc(-c5ccc(Cl)cc5Cl)o4)nn23)c(Cl)c1`, the TGI in experiment [1] is 33.3 µM; in experiment [2], > 100 µM; in experiment [3] it was 48.3 µM; in experiment [4], > 100 µM; in [5] it was 34.1 µM; in experiment [6], 36.2 µM. Moreover, the TGI came out at 32.1 µM in [7]; 62.7 µM in [8]; 46.8 µM in experiment [9]; 37.4 µM in [10]; 39.4 µM in experiment [11].

On to `Cc1cccc2sc(NC(=O)c3cc([N+](=O)[O-])ccc3Cl)nc12`, for which the TGI was > 100 µM in experiment [1]; > 100 µM in [2]; > 100 µM in [3]; 12.6 µM in [4]; > 21.1 µM in experiment [5]; 6.64 µM in [6]. The TGI was 9.95 µM in experiment [7]; > 100 µM in experiment [8]; 51.7 µM in experiment [9]; > 31.2 µM in experiment [10]; 30.3 µM in experiment [11].

For `Oc1[nH]c2ccccc2c1N=NC1=NCCCCN1`, the TGI in experiment [1], in experiment [2], in experiment [3], in experiment [4], in experiment [5] and in experiment [6] was > 100 µM throughout. In addition, the TGI in experiment [7], in experiment [8], in experiment [9], in experiment [10] and in [11] was > 100 µM in each case.

Turning to `O=C1CC(Br)c2c(Cl)sc(Cl)c21` (stereo not given), the TGI in experiment [1] came to 22.7 µM; in experiment [2] it was 13.8 µM; in experiment [3] it was 30.4 µM; in experiment [4], 7.38 µM; in [5], 30.5 µM; in experiment [6], 4.4 µM. Besides, the TGI in experiment [7] was found to be 10.4 µM; in experiment [8], 13.7 µM; in experiment [9], 45.4 µM; in experiment [10], 29.6 µM; in [11] it was 25.6 µM.

In the case of `CC1=C/C(=N/N2C(=O)/C(=C/c3ccc(Cl)cc3)N=C2c2ccccc2)CC(C)(C)C1`, the TGI in [1] is > 100 µM; in experiment [2] it was > 100 µM; in experiment [3], > 100 µM; in experiment [4] it was > 100 µM; in [5], 93.6 µM; in experiment [6], > 100 µM. The TGI in experiment [7], in experiment [8], in [9], in experiment [10] and in [11] was > 100 µM throughout.

For `O=C1Oc2ccccc2C(=O)/C1=C/N1C(=O)/C(=C/c2ccc([N+](=O)[O-])cc2)SC1=S`, the TGI is 57.2 µM in experiment [1]; > 100 µM in [2]; 89.5 µM in [3]; 50.6 µM in experiment [4]; 54.3 µM in experiment [5]; > 100 µM in experiment [6]. The TGI in [7] was 96.7 µM; in experiment [8] it was 69.8 µM; in experiment [9], > 100 µM; in [10] it was 5.71 µM; in experiment [11], > 100 µM.

`COc1cccc(NCC(=O)Nn2c(-c3ccccc3)nc3ccccc3c2=O)c1`: the TGI in [1], in experiment [2], in experiment [3], in experiment [4], in experiment [5] and in experiment [6] was > 100 µM in each case. For the same compound, the TGI in [7], in [8], in [9], in [10] and in experiment [11] was > 100 µM throughout.

For the compound `COC(=O)NCCc1[nH]nc2c1C(=O)C=C(OC)C2=O`, the TGI in [1] is 30.4 µM; in experiment [2], 48.1 µM; in experiment [3], > 100 µM; in experiment [4] it was 27.7 µM; in [5], 40.2 µM; in [6] it was 33.7 µM. In addition, the TGI in [7] is 42.8 µM; in [8], 37.3 µM; in [9] it was > 100 µM; in experiment [10] it was 37.7 µM; in experiment [11] it was 28.8 µM.
